What was measured:
[1] = biological target: T1, RXRα (Homo sapiens, UniProt P19793); assay: RXR homodimer co-transfection assay, antagonist mode, RXRα; conditions: read-out: RXRα Potency IC50; antagonist potency in the presence of the known RXR agonist LGD1069; CV-1 cells
T1 sequence (P19793 1-462): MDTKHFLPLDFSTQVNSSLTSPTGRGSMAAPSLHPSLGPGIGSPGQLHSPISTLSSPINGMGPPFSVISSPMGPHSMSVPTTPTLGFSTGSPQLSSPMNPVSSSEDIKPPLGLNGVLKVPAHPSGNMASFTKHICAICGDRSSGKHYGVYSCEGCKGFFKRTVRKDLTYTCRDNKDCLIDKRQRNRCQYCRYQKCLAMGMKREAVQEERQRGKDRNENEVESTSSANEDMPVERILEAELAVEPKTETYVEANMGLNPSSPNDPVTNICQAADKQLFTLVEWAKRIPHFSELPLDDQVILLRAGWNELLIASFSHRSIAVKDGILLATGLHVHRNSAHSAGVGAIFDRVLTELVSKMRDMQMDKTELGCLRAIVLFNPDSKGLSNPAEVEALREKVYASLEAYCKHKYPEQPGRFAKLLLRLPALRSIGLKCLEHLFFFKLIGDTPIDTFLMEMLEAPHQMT

[2] = biological target: T2, RXRγ (Mus musculus, UniProt P28705); assay: RXR homodimer co-transfection assay, antagonist mode, RXRγ; conditions: read-out: RXRγ Potency IC50; antagonist potency in the presence of the known RXR agonist LGD1069; CV-1 cells
T2 sequence (P28705 1-463): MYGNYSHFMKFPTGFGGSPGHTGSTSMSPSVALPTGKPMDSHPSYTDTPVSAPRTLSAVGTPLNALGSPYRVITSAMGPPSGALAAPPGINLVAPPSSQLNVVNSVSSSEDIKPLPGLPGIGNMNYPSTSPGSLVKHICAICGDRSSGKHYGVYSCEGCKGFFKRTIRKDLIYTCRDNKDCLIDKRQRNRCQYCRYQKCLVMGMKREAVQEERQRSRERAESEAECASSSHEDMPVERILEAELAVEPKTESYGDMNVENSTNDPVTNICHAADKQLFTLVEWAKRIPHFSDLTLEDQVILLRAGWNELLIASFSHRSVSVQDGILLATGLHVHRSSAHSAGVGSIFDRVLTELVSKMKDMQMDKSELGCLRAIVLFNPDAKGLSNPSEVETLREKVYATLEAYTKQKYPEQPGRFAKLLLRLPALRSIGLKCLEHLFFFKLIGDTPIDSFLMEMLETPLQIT

[3] = biological target: T3, RXRβ (Mus musculus, UniProt P28704); assay: RXR homodimer co-transfection assay, antagonist mode, RXRβ; conditions: read-out: RXRβ Potency IC50; antagonist potency in the presence of the known RXR agonist LGD1069; CV-1 cells
T3 sequence (P28704 1-520): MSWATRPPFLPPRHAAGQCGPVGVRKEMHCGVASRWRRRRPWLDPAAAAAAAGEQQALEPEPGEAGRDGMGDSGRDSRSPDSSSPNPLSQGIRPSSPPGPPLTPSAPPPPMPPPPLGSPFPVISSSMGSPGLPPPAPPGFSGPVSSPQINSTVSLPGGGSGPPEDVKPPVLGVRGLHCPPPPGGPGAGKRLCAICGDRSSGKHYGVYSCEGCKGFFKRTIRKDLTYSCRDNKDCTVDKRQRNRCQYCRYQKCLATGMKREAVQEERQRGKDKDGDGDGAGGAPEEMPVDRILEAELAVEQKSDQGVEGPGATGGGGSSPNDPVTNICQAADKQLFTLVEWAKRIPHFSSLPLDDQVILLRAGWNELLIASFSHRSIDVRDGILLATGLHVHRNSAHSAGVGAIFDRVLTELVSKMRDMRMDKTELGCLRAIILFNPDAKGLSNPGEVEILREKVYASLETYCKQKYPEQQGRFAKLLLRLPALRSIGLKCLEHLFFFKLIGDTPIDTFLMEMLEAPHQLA

[4] = biological target: T2, RXRγ; assay: RXR binding, RXRγ; conditions: -v- tritiated LGD1069 and tritiated 9-cis retinoic acid
Method: (§1) Non-specific binding was defined as that binding remaining in the presence of 500 nM of the appropriate unlabelled compound. At the end of the incubation period, bound from free ligand were separated. The amount of bound tritiated retinoids was determined by liquid scintillation counting of an aliquot (700 μL) of the supernatant fluid or the hydroxylapatite pellet.
(§2) After correcting for non-specific binding, IC50 values were determined. […] The IC50 value was determined graphically from a log-logit plot of the data. The Kd values were determined by application of the Cheng-Prussof equation to the IC50 values, the labeled ligand concentration and the Kd of the labeled ligand.

[5] = biological target: T3, RXRβ; assay: RXR binding, RXRβ; conditions: -v- tritiated LGD1069 and tritiated 9-cis retinoic acid
Method: as §1, §2

[6] = biological target: T1, RXRα; assay: RXR binding, RXRα; conditions: -v- tritiated LGD1069 and tritiated 9-cis retinoic acid
Method: as §1, §2

[7] = tested on: NB4 cells; assay: NB4 myeloid leukemic cell differentiation; format: cell-based; conditions: Compound 122 1 mM, TTNPB, 9-cis retinoic acid, LG100268 100 nM, FIG. 3
Method: All points were performed in triplicate for each experiment and varied less than 20%. Each experiment was repeated at least three times with similar results.

[8] = biological target: T4, RXRα:PPARα heterodimer (Homo sapiens, UniProt P19793); assay: RXR heterodimer co-transfection assay (RXRα and PPARα, PPARα response element reporter)
T4 sequence (P19793 1-462): T1 sequence (P19793 1-462)
T4 sequence (Q07869 1-468 partner): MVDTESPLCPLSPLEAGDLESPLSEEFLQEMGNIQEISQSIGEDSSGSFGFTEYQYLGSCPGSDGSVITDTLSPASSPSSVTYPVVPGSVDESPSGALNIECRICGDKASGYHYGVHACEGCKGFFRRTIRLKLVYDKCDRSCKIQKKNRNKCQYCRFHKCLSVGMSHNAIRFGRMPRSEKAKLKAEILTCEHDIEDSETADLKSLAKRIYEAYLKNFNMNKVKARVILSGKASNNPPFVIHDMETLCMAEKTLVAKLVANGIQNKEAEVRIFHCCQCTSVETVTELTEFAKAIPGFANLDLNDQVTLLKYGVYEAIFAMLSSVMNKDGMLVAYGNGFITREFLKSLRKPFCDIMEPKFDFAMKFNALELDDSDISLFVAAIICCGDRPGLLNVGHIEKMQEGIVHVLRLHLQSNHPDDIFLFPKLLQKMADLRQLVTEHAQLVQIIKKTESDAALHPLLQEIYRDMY

[9] = biological target: T5, RXRα:RARα heterodimer (Homo sapiens, UniProt P19793); assay: Gal4-receptor chimera transactivation assay, RXRα:RARα heterodimer
T5 sequence (P19793 227-458 limits assumed): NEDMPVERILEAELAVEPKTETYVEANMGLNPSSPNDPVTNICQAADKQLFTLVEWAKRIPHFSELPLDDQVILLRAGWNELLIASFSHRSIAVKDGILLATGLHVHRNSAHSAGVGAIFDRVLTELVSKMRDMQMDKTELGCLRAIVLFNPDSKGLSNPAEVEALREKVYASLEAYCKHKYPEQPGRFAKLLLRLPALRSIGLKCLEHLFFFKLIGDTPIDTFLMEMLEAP
T5 sequence (P10276 183-417 partner limits assumed): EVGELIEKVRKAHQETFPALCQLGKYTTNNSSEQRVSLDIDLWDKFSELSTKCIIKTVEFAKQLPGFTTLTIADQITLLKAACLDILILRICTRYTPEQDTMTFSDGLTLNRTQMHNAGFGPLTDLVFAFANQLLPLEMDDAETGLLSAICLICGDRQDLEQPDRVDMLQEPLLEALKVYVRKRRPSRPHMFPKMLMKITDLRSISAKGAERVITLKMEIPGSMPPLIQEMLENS
Method: (§3) Briefly, CV-1 cells were transfected in 12 well multi-well plates using 0.1 μg of each receptor and 0.5 μg of reporter per well. Each well was also transfected with 0.5 μg of the β-Gal expression plasmid as an internal control for transfection efficiency. Total plasmid per well was 2 μg made up using the plasmid pGEM. […] Receptor ligand binding domains (LBDs) were fused in-frame downstream to the Gal4 cDNA to produce Gal4-receptor fusion proteins. To express only the receptor LBDs, the LBD was cloned directly downstream to the CMV promoter.
Cells were then washed 2X with PBS and lysed using Promega lysis buffer and assayed for luciferase activity and β-galactosidase activity. All results were normalized against β-Gal.
The above assay system was used because reporter activity is dependent upon the binding of the Gal4 DNA binding domain to copies of its binding site, the UAS (upstream activation sequence), located upstream of the luciferase cDNA. […] Since endogenous receptors lack the Gal4 DNA binding domain, no background activation of the reporter is observed, however, Gal4-receptor LBD fusion proteins can bind the Gal4 site and be activated in a receptor ligand dependent manner. This system, therefore, completely eliminates the low background activity of endogenous receptors in CV-1 cells making it possible to test compound activity on exogenously added receptors.

[10] = biological target: T6, RXRα:RXRα homodimer (Homo sapiens, UniProt P19793); assay: Gal4-receptor chimera transactivation assay, RXR homodimer
T6 sequence (P19793 227-458 limits assumed): T5 sequence (P19793 227-458 limits assumed)
Method: as §3
Cells were then washed 2X with PBS and lysed using Promega lysis buffer and assayed for luciferase activity and β-galactosidase activity. All results were normalized against β-Gal. Each set was done in triplicates and each experiment was carried out at least 3 separate times with similar results.

Row | Compound | IC50 [1] [nM] | IC50 [2] [nM] | IC50 [3] [nM] | Kd [4] [nM] | Kd [5] [nM] | Kd [6] [nM] | further results
1 | 4-[(3-propoxy-5,6,7,8-tetrahydro-5,5,8,8-tetramethyl-2-naphthyl)carbonyl]benzoic acid O-methyloxime [Compound 110] | 80 | 211 | 217 | 66 | 77 | 40 | –
2 | Cc1cc2c(cc1C1(c3ccc(C(=O)O)cn3)CC1)C(C)(C)CCC2(C)C [LG100268, 6-[1-(3,5,5,8,8-pentamethyl-5,6,7,8-tetrahydronaphthalen-2-yl)cyclopropyl]nicotinic acid] | – | – | – | – | – | – | differentiation of NB4 cells (in words) [7]: does not promote NB4 differentiation; differentiation of NB4 cells (in words) ([7]; listed as LB100268): does not
3 | CC(C)(Oc1ccc(Cl)cc1)C(=O)O [Clofibric acid, clofibric acid, reference compound] | – | – | – | – | – | – | EC50 [8]: 40 µM; Fold activation ([8]; normalized luciferase values at 10−4M (clofibric acid) divided by values with vehicle): 6.5 fold
4 | C/C(=C\c1ccc(C(=O)O)cc1)c1ccc2c(c1)C(C)(C)CCC2(C)C [TTNPB, (E)-4-[2-(5,6,7,8-tetrahydro-5,5,8,8-tetramethyl-2-naphthalenyl)-1-propenyl]benzoic acid] | – | – | – | – | – | – | differentiation of NB4 cells (in words) [7]: stimulate NB4 cells to differentiate
5 | CCCOc1cc2c(cc1C1CC1C/C=C/C(C)=C/C(=O)O)C(C)(C)CCC2(C)C (stereo not shown) [Compound 152, (2E, 4E)-6-[2-(5,5,8,8-tetramethyl-3-propyloxy-5,6,7,8-tetrahydronaphthalen-2-yl)cyclopropan-1-yl]-3-methyl hexadienoic acid] | 195 | 428 | 337 | 21 | 45 | 8 | –
6 | (2E, 4E)-7-[(5,5,8,8-tetramethyl-3-heptyloxy-5,6,7,8-tetrahydronaphthalen-2-yl)cyclopropan-1-yl]-3-methyl heptadienoic acid [Compound 156] | 18 | 47 | 62 | 9 | 7 | 11 | –
7 | CC(C=CC=C(C)c1cc2c(cc1OCc1ccccc1)C(C)(C)CCC2(C)C)=CC(=O)O [Compound 128, (2E, 4E, 6Z)-7-[3-benzyloxy-5,6,7,8-tetrahydro-5,5,8,8-tetramethyl-2-naphthalen-2-yl]-3-methylocta-2,4,6-trienoic acid] | – | – | – | 27 | 23 | 9 | EC50 [8]: 0.2 µM; Fold activation ([8]; normalized luciferase values at 10−5M divided by values with vehicle): 4 fold
8 | (2E, 4E)-7-[(5,5,8,8-tetramethyl-3-propyloxy-5,6,7,8-tetrahydronaphthalen-2-yl)cyclopropan-1-yl]-3-methyl heptadienoic acid [Compound 155] | 24 | 37 | 53 | 8 | 9 | 9 | –
9 | CCCc1cc2c(cc1C1(c3ccc(C(=O)O)cc3)CC1)C(C)(C)CCC2(C)C [Compound 103, 4-[(3-n-propyl-5,6,7,8-tetrahydro-5,5,8,8-tetramethyl-2-naphthyl)cyclopropyl]benzoic acid] | 498 | 1670 | 701 | 936 | 846 | 389 | –
10 | 4-[(3-n-propyl-5,6,7,8-tetrahydro-5,5,8,8-tetramethyl-2-naphthyl)ethenyl]benzoic acid [Compound 102] | 386 | 1670 | 659 | 683 | 426 | 282 | –
11 | 4-[(3-propoxy-5,6,7,8-tetrahydro-5,5,8,8-tetramethyl-2-naphthyl)carbonyl]benzoic acid oxime [Compound 109] | 210 | 394 | 193 | 47 | 33 | 37 | –
12 | C/C(=C/C=C/C(C)=C/C(=O)O)c1cc2c(cc1OCc1ccc(C)cc1)C(C)(C)CCC2(C)C [Compound 130, (2E, 4E, 6Z)-7-[3-(4-methylbenzyloxy)-5,6,7,8-tetrahydro-5,5,8,8-tetramethyl-2-naphthalen-2-yl]-3-methylocta-2,4,6-trienoic acid] | – | – | – | – | – | – | effect on RXRα:RARα heterodimer in combination with TTNPB (in words) ([9]; combined with the RXR:RAR activator TTNPB, data not shown): slight increase in activation; agonist activity on RXRα:RARα heterodimers (in words) ([9]; compound alone): potent agonists; Fold activation ([10]; CV-1 cells, 100 nM LG100268, LGD1069, 500 nM Compounds 117, 122, 130, 1 mM Compound 131, n.e. = no effect): n.e.; agonist activity on RXR homodimers in the GAL4 transfection assay (in words) ([10]; compound alone): inactive; antagonist activity on RXR homodimers in the GAL4 transfection assay (in words) ([10]; in combination with either LGD1069 or LG100268): strong antagonists; Fold Repression ([10]; in combination with either LGD1069 or LG100268, 500 nM Compounds 117, 122, 130, 1 mM Compound 131): 25-75 fold

Source: patent US6545049B1, “Dimer-selective RXR modulators and methods for their use” (Ligand Pharmaceuticals Incorporated, priority 1995, dated 2003)
